Patent publication US20120214822A1 (ASTRAZENECA AB, priority 2007, published 2012)

Molecular target: human active recombinant p38α-6His tagged (Homo sapiens, UniProt Q16539)
Test: P38 Alpha Enzyme Assay (AlphaScreen, biotinylated-ATF2 substrate);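 note: 0.5 nM final p38α, reaction started with ATP and run 45 min at 37 °C, phospho-ATF2 read by antibody-based AlphaScreen, background wells quenched with EDTA before ATP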
Format: biochemical
Conditions: p38 alpha enzyme inhibition; means of replicate determinations; 4 h pre-incubation at 37° C.; SD of assay 0.2-0.3 log units

Chain of human active recombinant p38α-6His tagged (Q16539 whole entry): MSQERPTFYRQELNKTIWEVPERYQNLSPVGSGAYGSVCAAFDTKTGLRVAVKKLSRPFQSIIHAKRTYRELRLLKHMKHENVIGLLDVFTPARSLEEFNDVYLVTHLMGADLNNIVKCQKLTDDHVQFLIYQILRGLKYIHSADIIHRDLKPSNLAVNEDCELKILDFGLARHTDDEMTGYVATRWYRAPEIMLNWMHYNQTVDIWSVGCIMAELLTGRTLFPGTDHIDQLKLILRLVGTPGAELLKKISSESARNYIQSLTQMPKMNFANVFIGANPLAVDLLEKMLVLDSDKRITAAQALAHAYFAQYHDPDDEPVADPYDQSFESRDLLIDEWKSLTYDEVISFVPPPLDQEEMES

pIC50	SMILES
6.5	Cc1ccc(C(=O)NC2CC2)cc1-n1ccnc(NC[C@H](O)c2ccccc2)c1=O [Example 55, N-Cyclopropyl-3-[3-[[(2R)-2-hydroxy-2-phenylethyl]amino]-2-oxo-1(2H)-pyrazinyl]-4-methyl-benzamide]
9.8	CCC(C)NCCOc1ccccc1C1(Nc2nccn(-c3cc(C(=O)NC4CC4)ccc3C)c2=O)CC1 (centres unmarked) [Example 246, N-Cyclopropyl-4-methyl-3-[3-[[1-[2-[2-[(1-methylpropyl)amino]ethoxy]phenyl]cyclopropyl]amino]-2-oxo-1(2H)-pyrazinyl]-benzamide]
6.6	Cc1ccc(C(=O)NC2CC2)cc1-n1ccnc(-c2ccccc2)c1=O [Example 114, N-Cyclopropyl-4-methyl-3-(2-oxo-3-phenyl-1(2H)-pyrazinyl)-benzamide]
8.9	Cc1ccc(C(=O)NC2CC2)cc1-n1ccnc(N[C@@H](c2ccccc2)[C@@H](C)CN2CCC(O)CC2)c1=O [Example 152, N-Cyclopropyl-3-[3-[[(1R,2S)-3-(4-hydroxy-1-piperidinyl)-2-methyl-1-phenylpropyl]amino]-2-oxo-1(2H)-pyrazinyl]-4-methyl-benzamide]
8.8	Cc1ccc(C(=O)NC2CC2)cc1-n1ccnc(N[C@@H](c2ccccc2)[C@@H](C)CN2CCNC(=O)C2)c1=O [Example 178, N-Cyclopropyl-4-methyl-3-[3-[[(1R,2S)-2-methyl-3-(3-oxo-1-piperazinyl)-1-phenylpropyl]amino]-2-oxo-1(2H)-pyrazinyl]-benzamide]
7.4	Cc1ccc(C(=O)NC2CC2)cc1-n1ccnc(NCc2ccccc2F)c1=O [Example 1, N-Cyclopropyl-3-[3-(2-fluoro-benzylamino)-2-oxo-2H-pyrazin-1-yl]-4-methyl-benzamide]
9.8	Cc1ccc(C(=O)NC2CC2)cc1-n1ccnc(N[C@@H](c2ccccc2)[C@@H](C)CN2CCNC[C@H]2C)c1=O [Example 187, N-Cyclopropyl-4-methyl-3-[3-[[(1R,2S)-2-methyl-3-[(2R)-2-methyl-1-piperazinyl]-1-phenylpropyl]amino]-2-oxo-1(2H)-pyrazinyl]-benzamide]
8.7	COc1ccccc1[C@H](Nc1nccn(-c2cc(C(=O)NC3CC3)ccc2C)c1=O)[C@@H](C)CO [Example 274, N-Cyclopropyl-3-[3-[[(1R,2R)-3-hydroxy-1-(2-methoxyphenyl)-2-methylpropyl]amino]-2-oxo-1(2H)-pyrazinyl]-4-methyl-benzamide]
8.8	Cc1ccc(C(=O)NC2CC2)cc1-n1ccnc(N[C@@H](c2ccccc2)[C@@H](C)CN2CCN(C(C)C)CC2)c1=O [Example 171, N-Cyclopropyl-4-methyl-3-[3-[[(1R,2S)-2-methyl-3-[4-(1-methylethyl)-1-piperazinyl]-1-phenylpropyl]amino]-2-oxo-1(2H)-pyrazinyl]-benzamide]
9.1	Cc1ccc(C(=O)NC2CC2)cc1-n1ccnc(NC(C)(C)c2ccccc2OCCN2CCNCC2)c1=O [Example 199, N-Cyclopropyl-4-methyl-3-[3-[[1-methyl-1-[2-[2-(1-piperazinyl)ethoxy]phenyl]ethyl]amino]-2-oxo-1(2H)-pyrazinyl]-benzamide]
9.2	Cc1ccc(C(=O)NC2CC2)cc1-n1ccnc(NC(C)(C)c2ccccc2OCCN2CCN(C)CC2)c1=O [Example 202, N-Cyclopropyl-4-methyl-3-[3-[[1-methyl-1-[2-[2-(4-methyl-1-piperazinyl)ethoxy]phenyl]ethyl]amino]-2-oxo-1(2H)-pyrazinyl]-benzamide]
9	Cc1ccc(C(=O)NC2CC2)cc1-n1ccnc(N[C@@H](c2ccccc2)[C@@H](C)CN2CCC(C(F)(F)F)CC2)c1=O [Example 177, N-Cyclopropyl-4-methyl-3-[3-[[(1R,2S)-2-methyl-1-phenyl-3-[4-(trifluoromethyl)-1-piperidinyl]propyl]amino]-2-oxo-1(2H)-pyrazinyl]-benzamide]
7.6	Cc1ccc(C(=O)NC2CC2)cc1-n1ccnc(NCc2ccccc2O)c1=O [Example 68, N-Cyclopropyl-3-[3-[[(2-hydroxyphenyl)methyl]amino]-2-oxo-1(2H)-pyrazinyl]-4-methyl-benzamide]
8.9	Cc1ccc(C(=O)NC2CC2)cc1-n1ccnc(NC(C)(C)c2ccccc2OCCN2CCOCC2)c1=O [Example 203, N-Cyclopropyl-4-methyl-3-[3-[[1-methyl-1-[2-[2-(4-morpholinyl)ethoxy]phenyl]ethyl]amino]-2-oxo-1(2H)-pyrazinyl]-benzamide]

Further lines, the compound ahead of its results:

SMILES	pIC50
Cc1ccc(C(=O)N2CCCC2)cc1-n1cc(Br)nc(N2CCN(CCN3CCCC3)C(c3ccccc3)C2)c1=O (centres unmarked) [Example 122, 1-[3-[5-Bromo-2-oxo-3-[3-phenyl-4-[2-(1-pyrrolidinyl)ethyl]-1-piperazinyl]-1(2H)-pyrazinyl]-4-methylbenzoyl]-pyrrolidine]	5.6
Cc1ccc(C(=O)NC2CC2)cc1-n1ccnc(NCc2nc3ccccc3[nH]2)c1=O [Example 27, 3-[3-[(1H-Benzimidazol-2-ylmethyl)amino]-2-oxo-1(2H)-pyrazinyl]-N-cyclopropyl-4-methyl-benzamide]	6.4
CNCCOc1ccccc1C1(Nc2nccn(-c3cc(C(=O)NOC)ccc3C)c2=O)CC1 [Example 317, N-Methoxy-4-methyl-3-{3-[(1-{2-[2-(methylamino)ethoxy]phenyl}cyclopropyl)amino]-2-oxopyrazin-1(2H)-yl}benzamide]	10.1
Cc1ccc(C(=O)NC2CC2)cc1-n1ccnc(NC(C)(C)c2ccccc2OCC2CCNCC2)c1=O [Example 214, N-Cyclopropyl-4-methyl-3-[3-[[1-methyl-1-[2-(4-piperidinylmethoxy)phenyl]ethyl]amino]-2-oxo-1(2H)-pyrazinyl]-benzamide]	9.1
Cc1ccc(C(=O)NC2CC2)cc1-n1ccnc(N2CCCC2Cc2ccccc2F)c1=O (centres unmarked) [Example 75, N-Cyclopropyl-3-[3-[2-[(2-fluorophenyl)methyl]-1-pyrrolidinyl]-2-oxo-1(2H)-pyrazinyl]-4-methyl-benzamide]	7.1
CNCCCc1ccccc1C(C)(C)Nc1nccn(-c2cc(C(=O)NC3CC3)cc(F)c2C)c1=O [Example 323, N-Cyclopropyl-3-fluoro-4-methyl-5-{3-[(1-methyl-1-{2-[3-(methylamino)propyl]phenyl}ethyl)amino]-2-oxopyrazin-1(2H)-yl}benzamide]	9.5
Cc1ccc(C(=O)NC2CC2)cc1-n1ccnc(NC(C)(C)c2ccccc2OCCCCNCC(F)(F)F)c1=O [Example 205, N-Cyclopropyl-4-methyl-3-[3-[[1-methyl-1-[2-[4-[(2,2,2-trifluoroethyl)amino]butoxy]phenyl]ethyl]amino]-2-oxo-1(2H)-pyrazinyl]-benzamide]	9
Cc1ccc(C(=O)NC2CC2)cc1-n1ccnc(NCCc2ccccn2)c1=O [Example 9, N-Cyclopropyl-4-methyl-3-[2-oxo-3-[[2-(2-pyridinyl)ethyl]amino]-1(2H)-pyrazinyl]-benzamide]	6.3
Cc1c(F)cc(C(=O)NC2CC2)cc1-n1ccnc(NC(C)(C)c2ccccc2OCCNC[C@H](C)O)c1=O [Example 258, N-Cyclopropyl-3-fluoro-5-[3-[[1-[2-[2-[[(2S)-2-hydroxypropyl]amino]ethoxy]phenyl]-1-methylethyl]amino]-2-oxo-1(2H)-pyrazinyl]-4-methyl-benzamide]	10.4
CCNC(=O)c1ccc(C)c(-n2ccnc(NCc3ccccc3)c2=O)c1 [Example 115, N-Ethyl-4-methyl-3-[2-oxo-3-[(phenylmethyl)amino]-1(2H)-pyrazinyl]-benzamide]	6.9
CCNCCOc1ccccc1C1(Nc2nccn(-c3cc(C(=O)NC4CC4)ccc3C)c2=O)CC1 [Example 168, N-Cyclopropyl-4-methyl-3-[3-[[1-[2-[2-(ethylamino)ethoxy]phenyl]cyclopropyl]amino]-2-oxo-1(2H)-pyrazinyl]-benzamide]	9.9
Cc1ccc(C(=O)NC2CC2)cc1-n1ccnc(NCc2cccs2)c1=O [Example 31, N-Cyclopropyl-4-methyl-3-[2-oxo-3-[(2-thienylmethyl)amino]-1(2H)-pyrazinyl]-benzamide]	7
Cc1c(F)cc(C(=O)NC2CC2)cc1-n1ccnc(NC(C)(C)c2ccccc2OCCN)c1=O [Example 311, 3-[3-({1-[2-(2-Aminoethoxy)phenyl]-1-methylethyl}amino)-2-oxopyrazin-1(2H)-yl]-N-cyclopropyl-5-fluoro-4-methylbenzamide]	10.1
CCc1ccc(C(=O)NC2CC2)cc1-n1ccnc(NC(C)(C)c2ccccc2OCCNC)c1=O [Example 288, N-Cyclopropyl-4-ethyl-3-{3-[(1-methyl-1-{2-[2-(methylamino)ethoxy]phenyl}ethyl)amino]-2-oxopyrazin-1(2H)-yl}benzamide]	8.4
CNC[C@@H](O)COc1ccccc1C(C)(C)Nc1nccn(-c2cc(C(=O)NC3CC3)cc(F)c2C)c1=O [Example 307, N-Cyclopropyl-3-fluoro-5-[3-{[1-(2-{[(2R)-2-hydroxy-3-(methylamino)propyl]oxy}phenyl)-1-methylethyl]amino}-2-oxopyrazin-1(2H)-yl]-4-methylbenzamide]	10.3
Cc1ccc(C(=O)NC2CC2)cc1-n1ccnc(NCc2cccc(C)c2C)c1=O [Example 92, N-Cyclopropyl-3-[3-[[(2,3-dimethylphenyl)methyl]amino]-2-oxo-1(2H)-pyrazinyl]-4-methyl-benzamide]	7.6
Cc1ccc(C(=O)NC2CC2)cc1-n1ccnc(NC2(c3ccccc3OCCNC(CO)CO)CC2)c1=O [Example 294, N-Cyclopropyl-3-[3-({1-[2-(2-{[2-hydroxy-1-(hydroxymethyl)ethyl]amino}ethoxy)phenyl]cyclopropyl}amino)-2-oxopyrazin-1(2H)-yl]-4-methylbenzamide]	10
Cc1ccc(C(=O)NC2CC2)cc1-n1ccnc(NC2(c3ccccc3OCCN3CC[C@@H](O)C3)CC2)c1=O [Example 236, N-Cyclopropyl-3-[3-[[1-[2-[2-[(3R)-3-hydroxy-1-pyrrolidinyl]ethoxy]phenyl]cyclopropyl]amino]-2-oxo-1(2H)-pyrazinyl]-4-methyl-benzamide]	10
